Data taken from PMC5681660, “Reduced hepatitis B and D viral entry using clinically applied drugs as novel inhibitors of the bile acid transporter NTCP” (Scientific Reports, 2017).
Structures can show the parent of a compound that is named as a salt. Where two headings read alike, the source gives them in different places.

Legend:
human NTCP [1] = target: T1, human NTCP (Homo sapiens, UniProt Q14973); assay: Screening taurocholate uptake assay (96-well, [14C]taurocholate, 10 µM drug)
T1 sequence (Q14973 1-349): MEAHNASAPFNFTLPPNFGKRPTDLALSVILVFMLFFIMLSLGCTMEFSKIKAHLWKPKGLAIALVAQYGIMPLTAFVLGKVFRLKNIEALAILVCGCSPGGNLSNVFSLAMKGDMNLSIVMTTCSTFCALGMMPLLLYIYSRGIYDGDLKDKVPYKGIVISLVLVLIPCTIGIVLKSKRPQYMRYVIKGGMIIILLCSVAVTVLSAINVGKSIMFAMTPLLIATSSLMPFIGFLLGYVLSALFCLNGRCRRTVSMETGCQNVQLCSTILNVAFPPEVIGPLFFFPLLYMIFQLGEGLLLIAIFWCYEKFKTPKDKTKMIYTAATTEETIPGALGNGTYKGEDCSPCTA

human NTCP [2] = target: T1, human NTCP; assay: Screening fluorescent competitive Myrcludex B-FITC binding assay (96-well, 10 µM drug)
[3] = Prestwick library screen, 10 µM drug, B-score of taurocholate uptake
[4] = combined ranking from functional and binding assay B-scores
[5] = Prestwick library screen, 10 µM drug, B-score of Myrcludex B-FITC binding
[6] = Prestwick library screen, taurocholate uptake, 10 µM drug
[7] = ranking score beside the functional and binding assay B-scores of the screen
[8] = Prestwick library screen, Myrcludex B-FITC binding, 10 µM drug
[9] = combined ranking from functional and binding screening assays
[10] = screen, 10 µM drug, taurocholate uptake
[11] = screen, 10 µM drug, Myrcludex B-FITC binding

| Compound | B-score functional assay (human NTCP [1]; [3]) | Ranking score (human NTCP [1]; [4]) | B-score binding assay (human NTCP [2]; [5]) | B-score functional assay (human NTCP [1]; [6]) | Ranking score (human NTCP [1]; [7]) | B-score binding assay (human NTCP [2]; [8]) | other results |
| --- | --- | --- | --- | --- | --- | --- | --- |
| NS(=O)(=O)c1cc2c(cc1C(F)(F)F)NCNS2(=O)=O [Hydroflumethiazide] | 0.664 | 856.507 | 0.137 |  |  |  |  |
| CCN(CCO)CCCC(C)Nc1ccnc2cc(Cl)ccc12 (stereo not drawn) [Hydroxychloroquine sulfate] |  |  |  | 0.168 | 775.907 | 0.139 |  |
| OCCOCCN1CCN(C(c2ccccc2)c2ccc(Cl)cc2)CC1 (stereo not drawn) [Hydroxyzine dihydrochloride] |  |  |  |  |  |  | Ranking score (human NTCP [1]; [9]): 394.018; B-score functional assay (human NTCP [1]; [10]): 1.371; B-score binding assay (human NTCP [2]; [11]): -1.7 |
| Cc1cc(=O)oc2cc(O)ccc12 [Hymecromone] |  |  |  |  |  |  | Ranking score (human NTCP [1]; [9]): 448.437; B-score functional assay (human NTCP [1]; [10]): -0.811; B-score binding assay (human NTCP [2]; [11]): 0.036 |
| CC(C)C(=O)c1c(C(C)C)nn2ccccc12 [Ibudilast] | 0.276 | 895.497 | 0.677 |  |  |  |  |
| CCCCCCCN(CC)CCCC(O)c1ccc(NS(C)(=O)=O)cc1.CCCCCCCN(CC)CCCC(O)c1ccc(NS(C)(=O)=O)cc1.O=C(O)/C=C/C(=O)O (stereo not drawn) [Ibutilide fumarate] |  |  |  | 0.035 | 835.048 | 0.907 |  |
| CC(C(O)c1ccc(O)cc1)N1CCC(Cc2ccccc2)CC1.CC(C(O)c1ccc(O)cc1)N1CCC(Cc2ccccc2)CC1.O=C(O)C(O)C(O)C(=O)O (stereo not drawn) [Ifenprodil tartrate] |  |  |  | 1.465 | 727.635 | -0.263 |  |
| O=P1(NCCCl)OCCCN1CCCl (stereo not drawn) [Ifosfamide] |  |  |  |  |  |  | Ranking score (human NTCP [1]; [9]): 334.739; B-score functional assay (human NTCP [1]; [10]): 0.023; B-score binding assay (human NTCP [2]; [11]): -1.438 |
| O=C(NCNC(=O)NC1C(=O)NC(=O)N1CO)NC1C(=O)NC(=O)N1CO (stereo not drawn) [Imidurea] | 1.058 | 960.608 | 0.346 |  |  |  |  |
| CC(C)Cn1cnc2c(N)nc3ccccc3c21 [Imiquimod] |  |  |  |  |  |  | B-score functional assay (human NTCP [1]): -0.019; Ranking score (human NTCP [1]): 554.076; B-score binding assay (human NTCP [2]): -0.174 |
| CN[C@@H]1C[C@@H](c2ccc(Cl)c(Cl)c2)c2ccccc21 [Indatraline hydrochloride] |  |  |  | 0.152 | 814.16 | 0.336 |  |
| CC(C)(C)NC(=O)[C@@H]1CN(Cc2cccnc2)CCN1C[C@@H](O)C[C@@H](Cc1ccccc1)C(=O)N[C@H]1c2ccccc2C[C@H]1O [Indinavir sulfate] |  |  |  | -0.197 | 710.601 | 1.008 |  |
| CC(C(=O)O)c1ccc(N2Cc3ccccc3C2=O)cc1 (stereo not drawn) [Indoprofen] | 0.788 | 897.998 | 0.209 |  |  |  |  |
| O=C(CCCCC(=O)Nc1c(I)cc(I)c(C(=O)O)c1I)Nc1c(I)cc(I)c(C(=O)O)c1I [Iodipamide] |  |  |  | 2.519 | 831.882 | -0.069 |  |
| CC(=O)N(CC(O)CO)c1c(I)c(C(=O)NCC(O)CO)c(I)c(C(=O)NCC(O)CO)c1I (stereo not drawn) [Iohexol] |  |  |  | 0.198 | 748.519 | 0.046 |  |
| CCC(Cc1c(I)cc(I)c(N)c1I)C(=O)O (stereo not drawn) [Iopanoic acid] |  |  |  |  |  |  | Ranking score (human NTCP [1]; [9]): 395.161; B-score functional assay (human NTCP [1]; [10]): -1.985; B-score binding assay (human NTCP [2]; [11]): 1.953 |
| O=C(NCC(O)CO)c1c(I)c(C(=O)NCC(O)CO)c(I)c(N(CCO)C(=O)CO)c1I (stereo not drawn) [Ioversol] |  |  |  |  |  |  | B-score functional assay (human NTCP [1]): 1.843; Ranking score (human NTCP [1]): 1044.38; B-score binding assay (human NTCP [2]): 0.541 |
| CNC(=O)c1c(I)c(C(=O)NCC(=O)Nc2c(I)c(C(=O)O)c(I)c(C(=O)NCCO)c2I)c(I)c(N(C)C(C)=O)c1I [Ioxaglic acid] |  |  |  | -0.19 | 769.829 | 2.105 |  |
| O=C1c2ccccc2S(=O)(=O)N1CCCCN1CCN(c2ncccn2)CC1 [Ipsapirone] | 1.921 | 1093.42 | 0.854 |  |  |  |  |
| Nc1nc(N)nc(-c2cc(Cl)ccc2Cl)n1 [Irsogladine maleate] |  |  |  | 5.029 | 750.144 | -0.312 |  |
| Clc1ccc(C(Cn2ccnc2)OCc2c(Cl)cccc2Cl)c(Cl)c1 (stereo not drawn) [Isoconazole] | 0.797 | 1126.41 | 2.982 |  |  |  |  |
| CNC(C)CCC=C(C)C.CNC(C)CCC=C(C)C.O=C(O)[C@@H](O)[C@H](O)[C@H](O)[C@@H](O)C(=O)O [Isometheptene mucate] |  |  |  |  |  |  | Ranking score (human NTCP [1]; [9]): 319.923; B-score functional assay (human NTCP [1]; [10]): -0.726; B-score binding assay (human NTCP [2]; [11]): -0.672 |

| Compound | B-score functional assay (human NTCP [1]; [3]) | Ranking score (human NTCP [1]; [4]) | B-score binding assay (human NTCP [2]; [5]) | B-score functional assay (human NTCP [1]; [6]) | Ranking score (human NTCP [1]; [7]) | B-score binding assay (human NTCP [2]; [8]) | other results |
| --- | --- | --- | --- | --- | --- | --- | --- |
| NNC(=O)c1ccncc1 [Isoniazid] | 1.386 | 1117.92 | 1.337 |  |  |  |  |
| CC(C)[N+](C)(CCC(C(N)=O)(c1ccccc1)c1ccccc1)C(C)C [Isopropamide iodide] |  |  |  | 0.036 | 698.928 | 0.056 |  |
| O=[N+]([O-])O[C@H]1CO[C@H]2[C@@H]1OC[C@H]2O[N+](=O)[O-] [Isosorbide dinitrate] |  |  |  |  |  |  | B-score functional assay (human NTCP [1]): 2.183; Ranking score (human NTCP [1]): 973.944; B-score binding assay (human NTCP [2]): 0.166 |
| Cc1cc(NC(=O)C2=C(O)c3ccccc3S(=O)(=O)N2C)no1 [Isoxicam] | 1.391 | 933.01 | 0.145 |  |  |  |  |
| CC(COc1ccccc1)NC(C)C(O)c1ccc(O)cc1 (stereo not drawn) [Isoxsuprine hydrochloride] | 0.459 | 888.476 | 0.408 |  |  |  |  |
| CCC(C)n1ncn(-c2ccc(N3CCN(c4ccc(OCC5COC(Cn6cncn6)(c6ccc(Cl)cc6Cl)O5)cc4)CC3)cc2)c1=O (stereo not drawn) [Itraconazole] | 0.058 | 871.813 | 1.124 |  |  |  |  |
| CO[C@@H]1[C@@H](O[C@@H]2O[C@H](C)[C@@H](O[C@H]3C[C@@](C)(O)[C@@H](OC(=O)CC(C)C)[C@H](C)O3)[C@H](N(C)C)[C@H]2O)[C@@H](CC=O)C[C@@H](C)[C@@H](O)/C=C/C=C/C[C@@H](C)OC(=O)C[C@H]1OC(C)=O [Josamycin] |  |  |  | 0.552 | 744.048 | -0.039 |  |
| NC[C@H]1O[C@H](O[C@H]2[C@H](O)[C@@H](O[C@H]3O[C@H](CO)[C@@H](O)[C@H](N)[C@H]3O)[C@H](N)C[C@@H]2N)[C@H](O)[C@@H](O)[C@@H]1O [Kanamycin A sulfate] |  |  |  | -0.456 | 673.457 | 1.616 |  |
| O=C(O)C(O)C(O)C(=O)O.O=C(c1ccc(F)cc1)C1CCN(CCn2c(=O)[nH]c3ccccc3c2=O)CC1 [Ketanserin tartrate hydrate] |  |  |  | 0.482 | 727.865 | -0.046 |  |
| CC(=O)N1CCN(c2ccc(OCC3COC(Cn4ccnc4)(c4ccc(Cl)cc4Cl)O3)cc2)CC1 (stereo not drawn) [Ketoconazole] |  |  |  |  |  |  | Ranking score (human NTCP [1]; [9]): 349.5; B-score functional assay (human NTCP [1]; [10]): 0.044; B-score binding assay (human NTCP [2]; [11]): -1.382 |
| O=C(c1ccccc1)c1ccc2n1CCC2C(=O)O (stereo not drawn) [Ketorolac tromethamine] |  |  |  |  |  |  | Ranking score (human NTCP [1]; [9]): 396.636; B-score functional assay (human NTCP [1]; [10]): -0.269; B-score binding assay (human NTCP [2]; [11]): -0.614 |
| CN1CCC(=C2c3ccccc3CC(=O)c3sccc32)CC1 [Ketotifen fumarate] |  |  |  |  |  |  | Ranking score (human NTCP [1]; [9]): 425.088; B-score functional assay (human NTCP [1]; [10]): 0.006; B-score binding assay (human NTCP [2]; [11]): -0.838 |
| COc1c2occc2c(OC)c2c(=O)cc(C)oc12 [Khellin] |  |  |  |  |  |  | Ranking score (human NTCP [1]; [9]): 450.763; B-score functional assay (human NTCP [1]; [10]): 0.111; B-score binding assay (human NTCP [2]; [11]): -0.883 |
| CCOC(=O)C1=C(C)NC(C)=C(C(=O)OCC)C1c1ccccc1/C=C/C(=O)OC(C)(C)C [Lacidipine] | 0.194 | 957.497 | 1.528 |  |  |  |  |
| Nc1ccn([C@@H]2CS[C@H](CO)O2)c(=O)n1 [Lamivudine] |  |  |  |  |  |  | Ranking score (human NTCP [1]; [9]): 411.191; B-score functional assay (human NTCP [1]; [10]): 0.533; B-score binding assay (human NTCP [2]; [11]): -1.334 |
| Nc1nnc(-c2cccc(Cl)c2Cl)c(N)n1 [Lamotrigine] |  |  |  | 0.153 | 756.135 | 0.084 |  |
| Cc1c(OCC(F)(F)F)ccnc1C[S+]([O-])c1nc2ccccc2[nH]1 (stereo not drawn) [Lansoprazole] | 1.884 | 961.173 | 0.157 |  |  |  |  |
| CC(C)OC(=O)CCC/C=C\C[C@@H]1[C@@H](CC[C@@H](O)CCc2ccccc2)[C@H](O)C[C@@H]1O [Latanoprost] |  |  |  |  |  |  | Ranking score (human NTCP [1]; [9]): 347.885; B-score functional assay (human NTCP [1]; [10]): -2.131; B-score binding assay (human NTCP [2]; [11]): 0.817 |
| Cc1oncc1C(=O)Nc1ccc(C(F)(F)F)cc1 [Leflunomide] |  |  |  | 0.376 | 727.533 | -0.027 |  |
| CC(C)(C)NC[C@H](O)c1ccc(O)c(CO)c1 [Levalbuterol hydrochloride] | 0.334 | 962.353 | 1.242 |  |  |  |  |
| c1ccc([C@H]2CN3CCSC3=N2)cc1 [Levamisole hydrochloride] | 0.335 | 1002.84 | 1.834 |  |  |  |  |
